According to ChEMBL document CHEMBL3797052 (Eur J Med Chem, 2016):

Tests used:
Assay type in all cases: functional
[1] = Antiproliferative activity against human UACC257 cells assessed as cell growth at 10^-8 M after 48 hrs by sulforhodamine B assay; details: UACC-257, 48 h, read-out: Activity
[2] = Antiproliferative activity against human LOXIMVI cells assessed as cell growth at 10^-4 M after 48 hrs by sulforhodamine B assay; details: LOX IMVI, read-out: Activity
[3] = Antiproliferative activity against human UACC257 cells assessed as growth inhibition after 48 hrs by sulforhodamine B assay; details: UACC-257, 48 h; for CC50: read-out: LC50 (the source's name)
[4] = Antiproliferative activity against human SKOV3 cells assessed as growth inhibition after 48 hrs by sulforhodamine B assay; details: SK-OV-3, 48 h; for CC50: read-out: LC50 (the source's name)
A498 = test: Antiproliferative activity against human A498 cells assessed as cell growth at 10^-8 M after 48 hrs by sulforhodamine B assay; details: A498, 48 h, read-out: Activity
[5] = Antiproliferative activity against human DU145 cells assessed as cell growth at 10^-4 M after 48 hrs by sulforhodamine B assay; details: DU-145, 48 h, read-out: Activity
K562 [6] = test: Antiproliferative activity against human K562 cells assessed as cell growth at 10^-7 M after 48 hrs by sulforhodamine B assay; details: K562, 48 h, read-out: Activity
[7] = Antiproliferative activity against human HOP62 cells assessed as cell growth at 10^-4 M after 48 hrs by sulforhodamine B assay; details: HOP-62, 48 h, read-out: Activity
K562 [8] = test: Antiproliferative activity against human K562 cells assessed as cell growth at 10^-4 M after 48 hrs by sulforhodamine B assay; details: K562, 48 h, read-out: Activity
SK-MEL-2 = test: Antiproliferative activity against human SK-MEL-2 cells assessed as cell growth at 10^-6 M after 48 hrs by sulforhodamine B assay; details: SK-MEL-2, 48 h, read-out: Activity
[9] = Antiproliferative activity against human RXF393 cells assessed as cell growth at 10^-6 M after 48 hrs by sulforhodamine B assay; details: RXF 393, 48 h, read-out: Activity
NCI-H522 [10] = test: Antiproliferative activity against human NCI-H522 cells assessed as cell growth at 10^-7 M after 48 hrs by sulforhodamine B assay; details: NCI-H522, 48 h, read-out: Activity
NCI-H460 [11] = test: Antiproliferative activity against human NCI-H460 cells assessed as growth inhibition after 48 hrs by sulforhodamine B assay; details: NCI-H460, 48 h
[12] = Antiproliferative activity against human NCI-ADR-RES cells assessed as cell growth at 10^-6 M after 48 hrs by sulforhodamine B assay; details: read-out: Activity
[13] = Antiproliferative activity against human OVCAR3 cells assessed as cell growth at 10^-7 M after 48 hrs by sulforhodamine B assay; details: OVCAR-3, 48 h, read-out: Activity
NCI-H522 [14] = test: Antiproliferative activity against human NCI-H522 cells assessed as cell growth at 10^-6 M after 48 hrs by sulforhodamine B assay; details: NCI-H522, 48 h, read-out: Activity
NCI-H460 [15] = test: Antiproliferative activity against human NCI-H460 cells assessed as cell growth at 10^-8 M after 48 hrs by sulforhodamine B assay; details: NCI-H460, 48 h, read-out: Activity
[16] = Antiproliferative activity against human UACC62 cells assessed as cell growth at 10^-8 M after 48 hrs by sulforhodamine B assay; details: UACC-62, 48 h, read-out: Activity
SN12C = test: Antiproliferative activity against human SN12C cells assessed as cell growth at 10^-8 M after 48 hrs by sulforhodamine B assay; details: read-out: Activity
[17] = Antiproliferative activity against human PC3 cells assessed as growth inhibition after 48 hrs by sulforhodamine B assay; details: PC-3, 48 h
SR [18] = test: Antiproliferative activity against human SR cells assessed as cell growth at 10^-8 M after 48 hrs by sulforhodamine B assay; details: read-out: Activity
[19] = Antiproliferative activity against human BT549 cells assessed as cell growth at 10^-7 M after 48 hrs by sulforhodamine B assay; details: BT-549, 48 h, read-out: Activity
NCI-H226 = test: Antiproliferative activity against human NCI-H226 cells assessed as cell growth at 10^-4 M after 48 hrs by sulforhodamine B assay; details: NCI-H226, 48 h, read-out: Activity
Malme-3M = test: Antiproliferative activity against human MALME-3M cells assessed as cell growth at 10^-8 M after 48 hrs by sulforhodamine B assay; details: read-out: Activity
T47D = test: Antiproliferative activity against human T47D cells assessed as cell growth at 10^-8 M after 48 hrs by sulforhodamine B assay; details: read-out: Activity
[20] = Antiproliferative activity against human LOXIMVI cells assessed as cell growth at 10^-7 M after 48 hrs by sulforhodamine B assay; details: LOX IMVI, read-out: Activity
[21] = Antiproliferative activity against human Hs 578T cells assessed as cell growth at 10^-7 M after 48 hrs by sulforhodamine B assay; details: read-out: Activity
[22] = Antiproliferative activity against human SF295 cells assessed as growth inhibition after 48 hrs by sulforhodamine B assay; details: SF-295, 48 h; for CC50: read-out: LC50 (the source's name)
M14 = test: Antiproliferative activity against human M14 cells assessed as cell growth at 10^-8 M after 48 hrs by sulforhodamine B assay; details: M14, 48 h, read-out: Activity
SR [23] = test: Antiproliferative activity against human SR cells assessed as cell growth at 10^-4 M after 48 hrs by sulforhodamine B assay; details: read-out: Activity
[24] = Antiproliferative activity against human HCC2998 cells assessed as cell growth at 10^-4 M after 48 hrs by sulforhodamine B assay; details: HCC 2998, 48 h, read-out: Activity
[25] = Antiproliferative activity against human OVCAR3 cells assessed as growth inhibition after 48 hrs by sulforhodamine B assay; details: OVCAR-3, 48 h
[26] = Antiproliferative activity against human HOP92 cells assessed as growth inhibition after 48 hrs by sulforhodamine B assay; details: HOP-92, 48 h
[27] = Antiproliferative activity against human RXF393 cells assessed as cell growth at 10^-4 M after 48 hrs by sulforhodamine B assay; details: RXF 393, 48 h, read-out: Activity
NCI-H23 = test: Antiproliferative activity against human NCI-H23 cells assessed as cell growth at 10^-4 M after 48 hrs by sulforhodamine B assay; details: NCI-H23, 48 h, read-out: Activity
[28] = Antiproliferative activity against human MOLT4 cells assessed as cell growth at 10^-8 M after 48 hrs by sulforhodamine B assay; details: MOLT-4, 48 h, read-out: Activity
[29] = Antiproliferative activity against human MOLT4 cells assessed as cell growth at 10^-7 M after 48 hrs by sulforhodamine B assay; details: MOLT-4, 48 h, read-out: Activity

CNC(=O)c1cc(Oc2ccc3nc(NC(=O)Nc4cc(C(F)(F)F)cc(C(F)(F)F)c4)sc3c2)ccn1
growth at 0.01 µM [1]: 102% | growth at 100 µM [2]: -62% | GI50 [3]: 1.15 µM | TGI [3]: 2.62 µM | CC50 [3]: 5.95 µM | GI50 [4]: 1.43 µM | TGI [4]: 3.18 µM | CC50 [4]: 7.09 µM | growth at 0.01 µM (A498): 100% | growth at 100 µM [5]: -89% | growth at 0.1 µM (K562 [6]): 97% | growth at 100 µM [7]: -76% | growth at 100 µM (K562 [8]): -35% | growth at 1 µM (SK-MEL-2): 52% | growth at 1 µM [9]: 63% | growth at 0.1 µM (NCI-H522 [10]): 97% | GI50 (NCI-H460 [11]): 1.23 µM | LC50 (concentration killing 50% of cells) (NCI-H460 [11]): 6.6 µM | TGI (NCI-H460 [11]): 2.85 µM | growth at 1 µM [12]: 63% | growth at 0.1 µM [13]: 97% | growth at 1 µM (NCI-H522 [14]): 32% | growth at 0.01 µM (NCI-H460 [15]): 102% | growth at 0.01 µM [16]: 93% | growth at 0.01 µM (SN12C): 99% | GI50 [17]: 0.611 µM | LC50 [17]: 7.07 µM | TGI [17]: 2.29 µM | growth at 0.01 µM (SR [18]): 99% | growth at 0.1 µM [19]: 96% | growth at 100 µM (NCI-H226): -52% | growth at 0.01 µM (Malme-3M): 96% | growth at 0.01 µM (T47D): 85% | growth at 0.1 µM [20]: 93% | growth at 0.1 µM [21]: 100% | GI50 [22]: 1.08 µM | TGI [22]: 2.41 µM | CC50 [22]: 5.38 µM | growth at 0.01 µM (M14): 91% | growth at 100 µM (SR [23]): -53% | growth at 100 µM [24]: -74% | GI50 [25]: 1.03 µM | LC50 [25]: 5.04 µM | TGI [25]: 2.27 µM | GI50 [26]: 0.301 µM | LC50 [26]: 5.14 µM | TGI [26]: 0.949 µM | growth at 100 µM [27]: -70% | growth at 100 µM (NCI-H23): -52%

CNC(=O)c1cc(Oc2ccc3nc(NC(=O)c4cc(C(F)(F)F)cc(C(F)(F)F)c4)sc3c2)ccn1
growth at 0.01 µM [1]: 87% | growth at 100 µM [2]: -51% | GI50 [3]: 2.89 µM | TGI [3]: 8.12 µM | CC50 [3]: > 100 µM | GI50 [4]: 2.52 µM | TGI [4]: 7.98 µM | CC50 [4]: 73.7 µM | growth at 0.01 µM (A498): 69% | growth at 0.01 µM [28]: 86% | growth at 100 µM [5]: -65% | growth at 0.1 µM (K562 [6]): 98% | growth at 100 µM [7]: -71% | growth at 100 µM (K562 [8]): 4% | growth at 1 µM (SK-MEL-2): 90% | growth at 1 µM [9]: 97% | growth at 0.1 µM (NCI-H522 [10]): 109% | GI50 (NCI-H460 [11]): 3.83 µM | LC50 (concentration killing 50% of cells) (NCI-H460 [11]): 58.9 µM | TGI (NCI-H460 [11]): 14.6 µM | growth at 1 µM [12]: 96% | growth at 0.1 µM [13]: 102% | growth at 1 µM (NCI-H522 [14]): 96% | growth at 0.01 µM (NCI-H460 [15]): 99% | growth at 0.01 µM [16]: 89% | growth at 0.01 µM (SN12C): 98% | GI50 [17]: 2.53 µM | LC50 [17]: > 100 µM | TGI [17]: 12.8 µM | growth at 0.01 µM (SR [18]): 91% | growth at 0.1 µM [19]: 86% | growth at 100 µM (NCI-H226): -59% | growth at 0.01 µM (Malme-3M): 94% | growth at 0.1 µM [29]: 87% | growth at 0.01 µM (T47D): 97% | growth at 0.1 µM [20]: 96% | growth at 0.1 µM [21]: 93% | GI50 [22]: 2.56 µM | TGI [22]: 10.5 µM | CC50 [22]: 49.6 µM | growth at 0.01 µM (M14): 99% | growth at 100 µM (SR [23]): -23% | growth at 100 µM [24]: -60% | GI50 [25]: 2.32 µM | LC50 [25]: 32.3 µM | TGI [25]: 6.64 µM | GI50 [26]: 1.68 µM | LC50 [26]: > 100 µM | TGI [26]: 7.21 µM | growth at 100 µM [27]: -78% | growth at 100 µM (NCI-H23): -45%

CNC(=O)c1cc(Oc2ccc(NC(=O)Nc3ccc(Cl)c(C(F)(F)F)c3)cc2)ccn1 [SORAFENIB]
GI50 [3]: 2 µM | TGI [3]: 5.01 µM | CC50 [3]: 20 µM | GI50 [4]: 2.51 µM | TGI [4]: 12.6 µM | CC50 [4]: 63.1 µM | GI50 (NCI-H460 [11]): 2.51 µM | TGI (NCI-H460 [11]): 10 µM | GI50 [17]: 2 µM | TGI [17]: 7.94 µM | TGI [22]: 5.01 µM | CC50 [22]: 31.6 µM | GI50 [25]: 3.16 µM | TGI [25]: 12.6 µM | TGI [26]: 5.01 µM
